Source: patent US9440969B2, “Compounds and methods for kinase modulation, and indications therefor” (PLEXXIKON INC., priority 2009, dated 2016)

What was measured:
B-Raf V600E = B-Raf V600E (Homo sapiens, UniProt P15056, V600E); assay: B-Raf V600E kinase activity assay (AlphaScreen, biotin-MEK1 substrate); settings: 100 μM ATP, 100 nM biotin-MEK1, 45 minutes at room temperature, read-out: Biochemical activity (IC50 μM) V600E
Experimental: (§1) Assays for biochemical and cell based activity are known in the art, for example, as described in PCT publication WO 2007/002433, the disclosure of which is hereby incorporated by reference as it relates to such assays. For example, the biochemical activity IC50 values are determined with respect to inhibition of B-Raf kinase activity, c-Raf-1 kinase activity, or B-Raf V600E kinase activity, where inhibition of phosphorylation of a peptide substrate is measured as a function of compound concentration. Compounds to be tested are diluted in dimethyl sulfoxide to a concentration of 0.1 mM. These are serially diluted 15 μL into 30 μL of dimethyl sulfoxide seven times in 96 well plates for a total of 8 dilution points, and for each dilution point 1 μL is added to a well of an assay plate. Plates are prepared such that each well in a 384 well plate contains 1 μL of compound in 10 μL, volume with 0.1 ng Raf enzyme (i.e. any of B-Raf, c-Raf-1 or B-Raf V600E, Upstate Biotechnology or prepared by methods known to one of skill in the art), 50 mM HEPES, pH 7.0, 50 mM NaCl, 2 mM MgCl2, 1 mM MnCl2, 0.01% Tween-20, 1 mM DTT, and 100 nM biotin-MEK1 as substrate. The reaction is started with addition of 10 μL of 200 μM ATP (i.e. final 100 μM ATP). After incubation of the kinase reaction for 45 minutes at room temperature, 5 μL/well of Stop Solution is added (25 mM Hepes pH 7.5, 100 mM EDTA, 0.01% BSA with donor beads (Streptavidin coated beads, Perkin Elmer), acceptor beads (Protein A coated, Perkin Elmer), and anti phosphor MEK1/2 antibody (CellSignal), each at final concentration 10 μg/mL). The plates are incubated for 3 hours at room temperature and read on Envision reader (Perkin Elmer). Phosphorylation of Mek1 results in binding of the anti-phosphor-MEK1/2 antibody and association of the donor and acceptor beads such that signal correlates with kinase activity. The signal vs. compound concentration is used to determine the IC50.

c-Raf-1 = c-Raf-1 (Homo sapiens, UniProt P04049); assay: c-Raf-1 kinase activity assay (AlphaScreen, biotin-MEK1 substrate); settings: 100 μM ATP, 100 nM biotin-MEK1, 45 minutes at room temperature; read-out: Biochemical activity (IC50 μM) c-Raf-1
Experimental: as §1

B-Raf = B-Raf (Homo sapiens, UniProt P15056); assay: B-Raf kinase activity assay (AlphaScreen, biotin-MEK1 substrate); settings: 100 μM ATP, 100 nM biotin-MEK1, 45 minutes at room temperature; read-out: Biochemical activity (IC50 μM) B-Raf
Experimental: as §1

[1] = Relative solubility by turbidity in aqueous buffers (pH 1.5, 4.5, 6.8, 7.4); format: physicochemical
Experimental: As an indication of relative solubility, the turbidity of compounds in aqueous solutions is assessed. To assess possible compound properties in different physiological compartments, such as stomach, intestine, and blood, a series of aqueous buffers with varying pH is used. Thus each compound is diluted into four different physiologically relevant buffers and solution turbidity is measured by spectrophotometry.
Compounds are dissolved at a concentration of 25 mM in dimethyl sulfoxide, then serially diluted 1:1 into a 96 well plate, diluting 10 times in pure dimethyl sulfoxide, with the final well of each row a dimethyl sulfoxide blank. In an assay plate, 99 μL of appropriate buffer is added to each well, and 1 μL of each sample dilution is added to the buffer, achieving a range of final total concentrations in aqueous solutions having different pH. The buffers used are Simulated Gastric Fluid (SGF-pH 1.5) 0.5M NaCl, pH 1.5; Simulated Intestinal fluid (SIF-pH 4.5 and pH 6.8) 0.05M NaH2PO4, pH 4.5 and 6.8; and Hepes Buffer (HEPES-pH 7.4) 10 mM HEPES, 150 mM NaCl, pH 7.4. Control compounds pyrene, estriol and propranolol HCl are also assessed. Plates are spun and then mixed for 1 minute, and the absorbance is read using a Tecan Safire II to read wavelengths in the visible range (490, 535, and 650 nm) at four locations per well, reflecting the degree of turbidity present. The average optical density for each wavelength in each well is graphed vs. compound concentration, and the concentration at which the curve crosses a threshold O.D. of 0.01 for each wavelength is reported as the endpoint turbidity assay result. The average of the three wavelengths is used to compare turbidity of compounds. Compounds are considered to have low solubility if the threshold concentration is <31.3 μM, moderate solubility if the threshold concentration is 31.3 μM to 250 μM, and high solubility if the threshold concentration is >250 μM.
The following table indicates the relative solubility (L=low, M=moderate, H=high) based on turbidity threshold concentration at each pH for exemplary compounds according to the invention: […]

B-Raf, sequence (P15056 whole entry): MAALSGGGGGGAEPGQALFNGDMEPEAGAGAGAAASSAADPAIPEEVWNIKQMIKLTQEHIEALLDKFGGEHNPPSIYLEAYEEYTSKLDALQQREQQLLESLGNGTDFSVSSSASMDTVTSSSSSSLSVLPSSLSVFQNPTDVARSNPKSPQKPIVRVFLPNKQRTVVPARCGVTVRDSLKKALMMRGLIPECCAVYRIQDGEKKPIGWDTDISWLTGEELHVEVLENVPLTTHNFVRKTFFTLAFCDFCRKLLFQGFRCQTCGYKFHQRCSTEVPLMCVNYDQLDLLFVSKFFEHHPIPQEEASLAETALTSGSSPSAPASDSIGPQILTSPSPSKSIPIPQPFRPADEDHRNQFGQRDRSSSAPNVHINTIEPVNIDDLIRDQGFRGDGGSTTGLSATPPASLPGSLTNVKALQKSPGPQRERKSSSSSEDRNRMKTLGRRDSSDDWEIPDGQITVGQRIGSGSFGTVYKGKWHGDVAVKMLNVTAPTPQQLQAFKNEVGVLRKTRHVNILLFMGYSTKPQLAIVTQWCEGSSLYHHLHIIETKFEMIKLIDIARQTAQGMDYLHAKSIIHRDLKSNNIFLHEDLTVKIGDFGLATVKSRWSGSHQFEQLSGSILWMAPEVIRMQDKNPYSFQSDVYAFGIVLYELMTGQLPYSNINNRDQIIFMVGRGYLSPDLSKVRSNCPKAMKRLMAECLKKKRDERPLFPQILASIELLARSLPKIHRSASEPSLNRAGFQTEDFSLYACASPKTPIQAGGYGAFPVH
B-Raf V600E, sequence (P15056 whole entry V600E): as the sequence (P15056 whole entry) above, with V600E counted along it
c-Raf-1, sequence (P04049 whole entry Y340D/Y341D, form open): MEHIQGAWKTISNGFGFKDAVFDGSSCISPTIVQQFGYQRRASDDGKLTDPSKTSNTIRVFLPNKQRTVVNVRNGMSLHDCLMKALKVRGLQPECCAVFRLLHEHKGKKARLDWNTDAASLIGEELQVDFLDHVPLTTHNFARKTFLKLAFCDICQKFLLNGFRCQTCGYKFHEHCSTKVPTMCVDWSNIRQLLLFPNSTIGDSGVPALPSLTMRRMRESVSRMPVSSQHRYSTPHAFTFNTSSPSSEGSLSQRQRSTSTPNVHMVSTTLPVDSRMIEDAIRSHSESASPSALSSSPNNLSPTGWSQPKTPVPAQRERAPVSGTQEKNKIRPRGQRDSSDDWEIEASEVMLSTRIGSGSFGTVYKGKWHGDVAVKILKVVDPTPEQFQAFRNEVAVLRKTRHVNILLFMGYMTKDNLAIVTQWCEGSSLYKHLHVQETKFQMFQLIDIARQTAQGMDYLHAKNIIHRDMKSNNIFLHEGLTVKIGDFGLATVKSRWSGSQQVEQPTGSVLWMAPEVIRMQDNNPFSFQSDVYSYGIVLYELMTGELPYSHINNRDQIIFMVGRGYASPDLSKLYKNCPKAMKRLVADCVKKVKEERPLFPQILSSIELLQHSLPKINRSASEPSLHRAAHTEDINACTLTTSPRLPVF

IC50 (B-Raf V600E) [µM]	IC50 (c-Raf-1) [µM]	IC50 (B-Raf) [µM]	Structure (SMILES)	turbidity threshold (L, M, H) 1.4 ([1]; pH 1.5 buffer (SGF))	turbidity threshold (L, M, H) 4.5 ([1]; pH 4.5 buffer (SIF))	turbidity threshold (L, M, H) 6.8 ([1]; pH 6.8 buffer (SIF))	turbidity threshold (L, M, H) 7.4 ([1]; pH 7.4 buffer (HEPES))
< 0.1	< 0.1	< 0.1	CCCS(=O)(=O)Nc1ccc(F)c(C(=O)c2c[nH]c3ncc(-c4cccc5nccn45)cc23)c1F [P-0018, Propane-1-sulfonic acid [2,4-difluoro-3-(5-imidazo[1,2-a]pyridin-5-yl-1H-pyrrolo[2,3-b]pyridine-3-carbonyl)-phenyl]-amide]	–	–	–	–
< 0.1	< 0.1	< 0.1	CCCS(=O)(=O)Nc1ccc(F)c(C(=O)c2c[nH]c3ncc(-c4cnc(-n5cccn5)s4)cc23)c1F [P-1109, Propane-1-sulfonic acid {2,4-difluoro-3-[5-(2-pyrazol-1-yl-thiazol-5-yl)-1H-pyrrolo[2,3-b]pyridine-3-carbonyl]-phenyl}-amide]	–	–	–	–
< 0.1	< 0.1	< 0.1	COc1ccc(-c2cnc3[nH]cc(C(=O)c4c(F)ccc(NS(=O)(=O)c5cc(F)ccc5F)c4F)c3c2)c(OC)n1 [P-1406, N-{3-[5-(2,6-Dimethoxy-pyridin-3-yl)-1H-pyrrolo[2,3-b]pyridine-3-carbonyl]-2,4-difluoro-phenyl}-2,5-difluoro-benzenesulfonamide]	L (low solubility if the threshold concentration is <31.3 μM)	L (low solubility if the threshold concentration is <31.3 μM)	L (low solubility if the threshold concentration is <31.3 μM)	L (low solubility if the threshold concentration is <31.3 μM)
< 0.1	< 0.1	< 0.1	CS(=O)(=O)c1cncc(-c2cnc3[nH]cc(C(=O)c4c(F)ccc(NS(=O)(=O)c5cc(F)ccc5F)c4F)c3c2)c1 [P-1407, N-{2,4-Difluoro-3-[5-(5-methanesulfonyl-pyridin-3-yl)-1H-pyrrolo[2,3-b]pyridine-3-carbonyl]-phenyl}-2,5-difluoro-benzenesulfonamide]	–	–	–	–
< 0.1	< 0.1	< 0.1	CCCS(=O)(=O)Nc1ccc(F)c(C(=O)c2c[nH]c3ncc(-c4c(C)nn(S(=O)(=O)c5cn(C)nc5C)c4C)cc23)c1F [P-1007, Propane-1-sulfonic acid (3-{5-[1-(1,3-dimethyl-1H-pyrazole-4-sulfonyl)-3,5-dimethyl-1H-pyrazol-4-yl]-1H-pyrrolo[2,3-b]pyridine-3-carbonyl}-2,4-difluoro-phenyl)-amide]	–	–	–	–
< 0.1	< 0.1	< 0.1	O=C(c1c(F)ccc(NS(=O)(=O)c2cc(F)ccc2F)c1F)c1c[nH]c2ncc(-c3ccncc3)cc12 [P-1403, N-[2,4-Difluoro-3-(5-pyridin-4-yl-1H-pyrrolo[2,3-b]pyridine-3-carbonyl)-phenyl]-2,5-difluoro-benzenesulfonamide]	–	–	–	–
< 0.1	< 0.1	< 0.1	CNS(=O)(=O)c1ccc(-c2cnc3[nH]cc(C(=O)c4c(F)ccc(NS(=O)(=O)c5cc(F)ccc5F)c4F)c3c2)cc1 [P-1706, N-{2,4-Difluoro-3-[5-(4-methylsulfamoyl-phenyl)-1H-pyrrolo[2,3-b]pyridine-3-carbonyl]-phenyl}-2,5-difluoro-benzenesulfonamide]	–	–	–	–
< 0.1	~0.1	< 1	CCCS(=O)(=O)Nc1ccc(F)c(C(=O)c2c[nH]c3ncc(NC(=O)C4C=C(C)ON4)cc23)c1F (stereo not shown) [P-1802, 5-Methyl-2,3-dihydro-isoxazole-3-carboxylic acid {3-[2,6-difluoro-3-(propane-1-sulfonylamino)-benzoyl]-1H-pyrrolo[2,3-b]pyridin-5-yl}-amide]	–	–	–	–
< 0.1	< 0.1	< 0.1	NS(=O)(=O)c1ccc(-c2cnc3[nH]cc(C(=O)c4c(F)ccc(NS(=O)(=O)c5cc(F)ccc5F)c4F)c3c2)cc1 [P-1707, N-{2,4-Difluoro-3-[5-(4-sulfamoyl-phenyl)-1H-pyrrolo[2,3-b]pyridine-3-carbonyl]-phenyl}-2,5-difluoro-benzenesulfonamide]	–	–	–	–
< 0.1	< 0.1	< 0.1	O=C(c1c(F)ccc(NS(=O)(=O)c2cc(F)ccc2F)c1F)c1c[nH]c2ncc(-c3cccnc3)cc12 [P-1402, N-[2,4-Difluoro-3-(5-pyridin-3-yl-1H-pyrrolo[2,3-b]pyridine-3-carbonyl)-phenyl]-2,5-difluoro-benzenesulfonamide]	–	–	–	–
< 0.1	< 0.1	< 0.1	O=C(c1c(F)ccc(NS(=O)(=O)c2cc(F)ccc2F)c1F)c1c[nH]c2ncc(-c3ccncc3F)cc12 [P-1405, N-{2,4-Difluoro-3-[5-(3-fluoro-pyridin-4-yl)-1H-pyrrolo[2,3-b]pyridine-3-carbonyl]-phenyl}-2,5-difluoro-benzenesulfonamide]	–	–	–	–
< 0.1	< 0.1	< 0.1	Cn1cc(-c2cnc3[nH]cc(C(=O)c4c(F)ccc(NS(=O)(=O)c5cc(F)ccc5F)c4F)c3c2)cn1 [P-1009, N-{2,4-Difluoro-3-[5-(1-methyl-1H-pyrazol-4-yl)-1H-pyrrolo[2,3-b]pyridine-3-carbonyl]-phenyl}-2,5-difluoro-benzenesulfonamide]	–	–	–	–
< 0.1	< 0.1	< 0.1	O=C(c1c(F)ccc(NS(=O)(=O)c2cc(F)ccc2F)c1F)c1c[nH]c2ncc(-c3cnco3)cc12 [P-1300, N-[2,4-Difluoro-3-(5-oxazol-5-yl-1H-pyrrolo[2,3-b]pyridine-3-carbonyl)-phenyl]-2,5-difluoro-benzenesulfonamide]	–	–	–	–
< 0.1	< 0.1	< 1	CCCS(=O)(=O)Nc1ccc(F)c(C(=O)c2c[nH]c3ncc(NC(=O)c4cccnc4)cc23)c1F [P-1800, N-{3-[2,6-Difluoro-3-(propane-1-sulfonylamino)-benzoyl]-1H-pyrrolo[2,3-b]pyridin-5-yl}-nicotinamide]	–	–	–	–
< 0.1	< 0.1	< 0.1	CCCS(=O)(=O)Nc1ccc(F)c(C(=O)c2c[nH]c3ncc(-c4ccc5ncncc5c4)cc23)c1F [P-0026, Propane-1-sulfonic acid [2,4-difluoro-3-(5-quinazolin-6-yl-1H-pyrrolo[2,3-b]pyridine-3-carbonyl)-phenyl]-amide]	–	–	–	–
< 0.1	< 0.1	< 0.1	CCCS(=O)(=O)Nc1ccc(F)c(C(=O)c2c[nH]c3ncc(-c4c(C)nn(-c5nnn[nH]5)c4C)cc23)c1F [P-1006, Propane-1-sulfonic acid (3-{5-[3,5-dimethyl-1-(1H-tetrazol-5-yl)-1H-pyrazol-4-yl]-1H-pyrrolo[2,3-b]pyridine-3-carbonyl}-2,4-difluoro-phenyl)-amide]	–	–	–	–
